The values that follow are results of earlier work, collected in patent US20070178049A1, “Systems and methods for the delivery of corticosteroids having an enhanced pharmacokinetic profile” (Verus Pharmaceuticals, Inc., priority 2005, published 2007).

Each structure is given as a SMILES string.

For the compound `CCCC1O[C@@H]2C[C@H]3[C@@H]4CCC5=CC(=O)C=C[C@]5(C)[C@H]4[C@@H](O)C[C@]3(C)[C@]2(C(=O)CO)O1` (stereo partly drawn) [budesonide, (R, S)-11β,16α,17,21-tetrahydroxypregna-1,4-diene-3,20-dione cyclic 16,17-acetal with butyraldehyde], the solubility in alcohols result (alcohols) is recorded as “readily soluble”. For the same compound, the solubility in water entry (water) was “virtually insoluble”.
